According to patent publication US12016901B2, “Tissue catalyzed growth of polymer as epithelial linings for therapy” (priority 2019, dated 2024):

Columns and labels:
[1] = target: T1, catalase (Sus scrofa, UniProt O62839); experiment: In vitro inhibition of catalase activity in tissue lysates; assay type: biochemical, pig; conditions: small intestinal lysates, inhibitor 20 mM, 6 hours, 4° C.
T1 construct: from tissue; host or cells: porcine small intestinal epithelium, homogenized in RIPA buffer (tissue lysate)
T1 sequence (O62839 2-527 limits assumed): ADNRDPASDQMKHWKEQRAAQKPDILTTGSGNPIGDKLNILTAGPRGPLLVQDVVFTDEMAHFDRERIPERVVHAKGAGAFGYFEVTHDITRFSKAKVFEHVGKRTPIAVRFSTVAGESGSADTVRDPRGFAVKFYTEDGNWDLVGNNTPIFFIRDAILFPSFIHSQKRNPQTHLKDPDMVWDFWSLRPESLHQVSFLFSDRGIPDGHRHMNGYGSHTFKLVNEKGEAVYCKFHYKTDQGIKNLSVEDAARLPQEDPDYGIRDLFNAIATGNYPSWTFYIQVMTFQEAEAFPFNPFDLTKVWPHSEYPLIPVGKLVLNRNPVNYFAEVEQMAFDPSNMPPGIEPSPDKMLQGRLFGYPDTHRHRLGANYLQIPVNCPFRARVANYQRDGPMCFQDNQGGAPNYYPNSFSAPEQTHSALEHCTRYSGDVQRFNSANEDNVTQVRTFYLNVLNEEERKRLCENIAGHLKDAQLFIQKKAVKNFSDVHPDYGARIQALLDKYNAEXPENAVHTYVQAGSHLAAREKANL
Protocol: Tissue lysate preparation. Epithelial tissues of the porcine gastrointestinal tract were dissected on ice. The outer mucus layers were removed by aspiration, and then the rinsed tissues [(with 1× phosphate-buffered saline (PBS)] were frozen by liquid nitrogen. Tissues (10 mg) were incubated in the ice-cold lysis buffer (600 μl, RIPA buffer mixed with protease and phosphatase inhibitor cocktail, Sigma-Aldrich) and homogenized to form tissue lysates. The total protein concentrations of tissue lysates were measured by using the bicinchoninic acid (BCA) assay.
In vitro inhibition of catalase activity. 3-amino-1,2,4-triazole was used as the inhibitor. Tissue lysates (10 mg/ml, 100 μl) were incubated in the inhibitor solution (20 mM) for 6 hours at 4° C.

[2] = in vivo; conditions: pig
Protocol: In vivo evolution of pharmacokinetics of the praziquantel-tissue-accelerated polymerization. Pigs were sedated, intubated, and maintained with isoflurane as described above. The gastric fluid was removed from the stomach before administration. […] Praziquantel without the tissue-accelerated polymerization was used as the control. Blood samples were collected from a marginal ear vein at designated time points. Serum samples were separated from blood by centrifugation (1800 G×10 min at 4° C.) and were stored at −80° C. for further analysis. […] Serum praziquantel concentration assessment. Praziquantel concentrations in serum from in vivo experiments were analyzed using Ultra-Performance Liquid Chromatography-Tandem Mass Spectrometry (UPLC-MS/MS). Analysis was performed on a Waters ACQUITY UPLC-I-Class System aligned with a Waters Xevo TQ-S mass spectrometer (Waters Corporation, Milford Mass.). Liquid chromatographic separation was performed on an Acquity UPLC BEH C18 (50 mm×2.1 mm, 1.7-μm particle size) column at 50° C. The mobile phase consisted of aqueous 0.1% formic acid, 10 mM ammonium formate solution (Mobile Phase A) and acetonitrile: 10 mM ammonium formate, 0.1% formic acid solution (95:5 v/v) (Mobile Phase B). […] The composition of 0% Mobile Phase A and 100% Mobile Phase B was held constant until 3.50 minutes. The composition returned to 80% Mobile Phase A at 3.51 minutes and was held at this composition until completion of the run, ending at 5.00 minutes, where it remained for column equilibration. The total run time was 5.00 minutes. […] Sample introduction and ionization was by electrospray ionization (ESI) in the positive ionization mode. Waters MassLynx 4.1 software was used for data acquisition and analysis. Stock solutions of praziquantel were prepared in methanol at a concentration of 500 μg/ml. […] Samples were vortexed, sonicated for 10 minutes, and centrifuged for 10 minutes at 13,000 rpm. 200 μl of supernatant was pipetted into a 96-well plate containing 200 μl of water. Finally, 1.00 μl was injected onto the UPLC-ESI-MS system for analysis.

Row | AUC ([2]; Yorkshire) | concentration at 6 h ([2]; Yorkshire) | elimination phase ([2]; Yorkshire) | half-life ([2]; Yorkshire) | serum praziquantel concentration at 24 hours [2] | Compound | decrease of catalytic capacity of lysates [1]
1 | – | – | – | – | – | Nc1nc[nH]n1 [catalase-specific inhibitor, 3-amino-1,2,4-triazole] | around 80%
2 | 222 ng·h/mL | 15.1 ng/mL | 2 to 6 h | 1.3 h | no drug was detected | O=C(C1CCCCC1)N1CC(=O)N2CCc3ccccc3C2C1 (stereo not drawn) [praziquantel control, Praziquantel] | –
